{"source": "patent US5061795A", "about": "“Hexa-cyclic compound” (Daiichi Pharmaceutical Co., Ltd., priority 1987, dated 1991)", "key": {"nucleic acid synthesis": {"system": "nucleic acid synthesis", "settings": "background statement; cited from earlier work"}, "[1]": {"settings": "clinical tests conducted in the United States; cited from earlier work"}, "[2]": {"system": "P388 murine leukemia cells", "test": "Antitumour effect against P388 murine leukemia in male CDF-1 mice (median survival time)", "format": "in vivo, mouse", "settings": "for Mice Survived for 40 days: intraperitoneal on day 1, CDF-1 mice; for T/C (median survival time of treated group against control group): intraperitoneal on day 1, P388 cells inoculated on day 0, CDF-1 mice", "procedure": "P388 murine leukemia cells (1×10^6 /mouse) were inoculated into male CDF-1 mice (5-6 mice per group, age 7-10 weeks, weighing 21-34 g) on day 0, and the test compound was administered intraperitoneally on day 1.\nThe test compound were dissolved in water or physiological saline after having been converted into sodium salts, or suspended into a physiological saline containing 0.9% benzyl alcohol, 0.4% Tween 80, or 0.5% CMC.\nThe antitumour effect was evaluated by the percentage of the median survival time of the treated group (T) against that of the control group (C)."}, "[3]": {"system": "P388 mouse leukemia cells", "test": "Growth inhibition of P388 mouse leukemia cells, cell count after 72 hours", "format": "cell-based", "procedure": "A test compound was added to a suspension containing P388 mouse leukemia cells (2×10^4 /ml) and the cells were cultured in 5% CO2 at […]. After 72 hours, the number of the cells were counted to determine the IC50 value."}, "[4]": {"system": "Mouse leukemia P388 cells", "test": "MTT assay on mouse leukemia P388 cells, 72 hours", "format": "cell-based", "procedure": "Mouse leukemia P388 cells, harvested from a pre-culture medium, were suspended in a fresh PRMI 1640 medium supplemented with 10% FCS (GIBCO) and inoculated in a volume of 0.05 ml at 2.5×10^3/ml cells per well in 96-well microplates. Following 24 hour incubation at 37° C. under 5% CO2 and 100 relative humidity, 0.05 ml of the culture medium or a culture medium containing a test compound was dispersed into each well. The cells in the medium were then incubated for 72 hours. At 4 hours before the end of incubation, 0.01 ml of MTT [3-(4,5-dimethylthiazol-2-yl)-2,5-diphenyl-2H-tetrazolium bromide] solution dissolved in phosphate-buffer saline at a concentration of 5 mg/ml was added. After 4 hour exposure with the MTT solution, the reaction was stopped by the addition of 0.2 ml/well of 1M HCl:i-propanol (1:24) followed by thorough mixing. The optical density of the solution was measured by EAR 400 (SLT Labinstruments, Austria) at 540 nm."}, "[5]": {"settings": "repeated in the table of Experimental Example 3, footnote *, read-out: IC50 (in parentheses; value obtained by determination in Experimental Example 2)"}}, "note": "Read-outs that look alike come from different tables or passages of the source.", "data": [{"smiles": "CC[C@@]1(O)C(=O)OCc2c1cc1n(c2=O)Cc2cc3ccccc3nc2-1", "note": "[Camptothecin]", "values": [{"measurement": "antitumour activity", "setting": "nucleic acid synthesis", "result": "known to exhibit an antitumour activity because of its capability of inhibiting nucleic acid synthesis"}, {"measurement": "safety in clinical tests", "setting": "[1]", "result": "found to have a problem in view of safety"}]}, {"smiles": "CCC1(O)C(=O)OCc2c1cc1n(c2=O)Cc2c-1nc1ccc(O)c3c1c2CCC3", "note": "(stereo not shown) [Example 1, 9-ethyl-2,3-dihydro-4,9-dihydroxy-1H,12H-benzo[de]pyrano[3',4': 6,7]indolizino[1,2-b]quinoline-10,13(9H,15H)-dione]", "values": [{"measurement": "Mice Survived for 40 days", "setting": "[2]; 240 mg/kg", "result": "5 Out of 6"}, {"measurement": "T/C (median survival time of treated group against control group)", "setting": "[2]; 240 mg/kg", "result": "> 392", "unit": "%"}, {"measurement": "IC50", "setting": "[3]; cell count, read-out: IC50", "result": 1.47, "unit": "ng/mL"}, {"measurement": "IC50", "setting": "[3]; [5]", "result": 1.47, "unit": "ng/mL"}, {"measurement": "IC50", "setting": "[4]", "result": 3.8, "unit": "ng/mL"}]}, {"smiles": "CCC1(O)C(=O)OCc2c1cc1n(c2=O)Cc2c-1nc1ccc(C)c3c1c2CCO3", "note": "(stereo not shown) [Example 2, 9-ethyl-1,2-dihydro-9-hydroxy-4-methyl-12H-pyrano[4,3,2-de]pyrano[3',4':6,7]indolizino[1,2-b]quinoline-10,13(9H,15H)-dione]", "values": [{"measurement": "Mice Survived for 40 days", "setting": "[2]; 480 mg/kg", "result": "4 Out of 6"}, {"measurement": "T/C (median survival time of treated group against control group)", "setting": "[2]; 480 mg/kg", "result": "> 376", "unit": "%"}, {"measurement": "IC50", "setting": "[3]; cell count, read-out: IC50", "result": 0.81, "unit": "ng/mL"}]}, {"smiles": "CCC1(O)C(=O)OCc2c1cc1n(c2=O)Cc2c-1nc1ccc(C)c3c1c2CCS3", "note": "(stereo not shown) [Example 3, 9-ethyl-1,2-dihydro-9-hydroxy-4-methyl-12H-thiino[4,3,2-de]pyrano[3',4':6,7]indolizino[1,2-b]quinoline-10,13(9H,15H)-dione]", "values": [{"measurement": "Mice Survived for 40 days", "setting": "[2]; 480 mg/kg", "result": "5 Out of 6"}, {"measurement": "T/C (median survival time of treated group against control group)", "setting": "[2]; 480 mg/kg", "result": "> 400", "unit": "%"}, {"measurement": "IC50", "setting": "[3]; cell count, read-out: IC50", "result": 4.32, "unit": "ng/mL"}]}, {"smiles": "CCC1(O)C(=O)OCc2c1cc1n(c2=O)Cc2c-1nc1ccc(C)c3c1c2CCN3", "note": "(stereo not shown) [Example 4, 9-ethyl-1,2-dihydro-9-hydroxy-4-methyl-3H,12H-pyrano[3',4': 6,7]indolizino[1,2-c]benzo[ij][2,7]naphthilidine-10,13(9H,15H)-dione]", "values": [{"measurement": "IC50", "setting": "[3]; cell count, read-out: IC50", "result": 3.73, "unit": "ng/mL"}, {"measurement": "IC50", "setting": "[3]; [5]", "result": 3.73, "unit": "ng/mL"}, {"measurement": "IC50", "setting": "[4]", "result": 4.46, "unit": "ng/mL"}]}, {"smiles": "CCC1(O)C(=O)OCc2c1cc1n(c2=O)Cc2c-1nc1ccc(Cl)c3c1c2CCC3", "note": "(stereo not shown) [Example 5, 4-chloro-9-ethyl-2,3-dihydro-9-hydroxy-1H,12H-benzo[de]pyrano[3',4':6,7]indolizino[1,2-b]quinoline-10,13(9H,15H)-dione]", "values": [{"measurement": "IC50", "setting": "[3]; cell count, read-out: IC50", "result": 3.3, "unit": "ng/mL"}]}, {"smiles": "CCC1(O)C(=O)OCc2c1cc1n(c2=O)Cc2c-1nc1ccc(O)c3c1c2CC3", "note": "(stereo not shown) [Example 8, 8-ethyl-1,2-dihydro-3,8-dihydroxy-11H-cyclopenta[de]pyrano[3',4':6,7]indolizino[1,2-b]quinoline-9,12(8H,14H)-dione]", "values": [{"measurement": "IC50", "setting": "[3]; cell count, read-out: IC50", "result": 3.03, "unit": "ng/mL"}]}, {"smiles": "CCC1(O)C(=O)OCc2c1cc1n(c2=O)Cc2c-1nc1ccc(O)c3c1c2CCO3", "note": "(stereo not shown) [Example 11, 9-ethyl-1,2-dihydro-4,9-dihydroxy-12H-pyrano[4,3,2-de]pyrano[3',4':6,7]indolizino[1,2-b]quinoline-10,13(9H,15H)-dione]", "values": [{"measurement": "IC50", "setting": "[3]; cell count, read-out: IC50", "result": 2.64, "unit": "ng/mL"}, {"measurement": "IC50", "setting": "[3]; [5]", "result": 2.64, "unit": "ng/mL"}, {"measurement": "IC50", "setting": "[4]", "result": 4.05, "unit": "ng/mL"}]}, {"smiles": "CCC1(O)C(=O)OCc2c1cc1n(c2=O)Cc2c-1nc1ccc(C#N)c3c1c2CCS3", "note": "(stereo not shown) [Example 16, 4-cyano-1,2-dihydro-9-ethyl-9-hydroxy-12H-thiino[4,3,2-de]pyrano[3',4':6,7]indolizino[1,2-b]quinoline-10,13(9H,15H)dione]", "values": [{"measurement": "Mice Survived for 40 days", "setting": "[2]; 60 mg/kg", "result": "4 Out of 6"}, {"measurement": "T/C (median survival time of treated group against control group)", "setting": "[2]; 60 mg/kg", "result": 443, "unit": "%"}, {"measurement": "IC50", "setting": "[3]; cell count, read-out: IC50", "result": 7.23, "unit": "ng/mL"}]}, {"smiles": "CCC1(O)C(=O)OCc2c1cc1n(c2=O)Cc2c-1nc1ccc(N)c3c1c2CCS3", "note": "(stereo not shown) [Example 20, 4-amino-1,2-dihydro-9-ethyl-9-hydroxy-12H-thiino[4,3,2,-de]pyrano[3',4': 6,7]indolizino [1,2-b]quinoline-10,13(9H,15H)-dione]", "values": [{"measurement": "IC50", "setting": "[3]; cell count, read-out: IC50", "result": 0.92, "unit": "ng/mL"}]}, {"smiles": "CCC1(O)C(=O)OCc2c1cc1n(c2=O)Cc2c-1nc1cccc3c1c2CCS3", "note": "(stereo not shown) [Example 21, 1,2-dihydro-9-ethyl-9-hydroxy-12H-thiino[4,3,2,-de]pyrano[3',4': 6,7]indolizino[1,2-b]quinoline-10,13(9H,15H)-dione]", "values": [{"measurement": "IC50", "setting": "[3]; cell count, read-out: IC50", "result": 3.41, "unit": "ng/mL"}]}, {"smiles": "CC[C@@]1(O)C(=O)OCc2c1cc1n(c2=O)Cc2c-1nc1ccc(CN)c3c1c2CCS3.Cl", "note": "[Example 31, (s)-4-aminomethyl-9-ethyl-1,2-dihydro-9-hydroxy-12H-thiino[4,3,2-de]pyrano[3',4':6,7]indolizino[1,2-b]quinoline-10,13(9H,15H)-dione hydrochloride]", "values": [{"measurement": "IC50", "setting": "[4]", "result": 3.66, "unit": "ng/mL"}]}, {"smiles": "CC[C@@]1(O)C(=O)OCc2c1cc1n(c2=O)Cc2c-1nc1ccc(CN)c3c1c2CCC3.Cl", "note": "[Example 33, (s)-4-aminomethyl-9-ethyl-2,3-dihydro-9-hydroxy-1H,12H-benzo[de]pyrano[3',4':6,7]indolizino[1,2-b]quinoline-10,13(9H,15H)-dione hydrochloride]", "values": [{"measurement": "IC50", "setting": "[4]", "result": 5.52, "unit": "ng/mL"}]}, {"smiles": "CC[C@@]1(O)C(=O)OCc2c1cc1n(c2=O)Cc2c-1nc1ccc(CNC)c3c1c2CCS3.Cl", "note": "[Example 36, (s)-9-ethyl-1,2-dihydro-9-hydroxy-4-methylaminomethyl-12H-thiino[4,3,2-de]pyrano[3',4':6,7]indolizino[1,2-b]quinoline-10,13(9H,15H)-dione hydrochloride]", "values": [{"measurement": "IC50", "setting": "[4]", "result": 12.2, "unit": "ng/mL"}]}, {"smiles": "CC[C@@]1(O)C(=O)OCc2c1cc1n(c2=O)Cc2c-1nc1ccc(CN)c3c1c2CCO3.Cl", "note": "[Example 38, (s)-4-aminomethyl-9-ethyl-1,2-dihydro-9-hydroxy-12H-pyrano[4,3,2-de]pyrano[3',4':6,7]indolizino[1,2-b]quinoline-10,13(9H,15H)-dione hydrochloride]", "values": [{"measurement": "IC50", "setting": "[4]", "result": 6.36, "unit": "ng/mL"}]}, {"smiles": "CCC1(O)C(=O)OCc2c1cc1n(c2=O)Cc2c-1nc1ccc(N)c3c1c2CCC3", "note": "(stereo not shown) [Example 39, 4-amino-9-ethyl-2,3-dihydro-9-hydroxy-1H,12H-benzo[de]pyrano [3',3':6,7]indolizino[1,2-b]quinoline-10,13(9H,15H)-dione]", "values": [{"measurement": "IC50", "setting": "[4]", "result": 2.97, "unit": "ng/mL"}]}]}
